Each block holds one compound with its values, some of them ahead of it. The source made the active and inactive calls. The calls are words filed in the database; no cut-off is given here.
What was measured:
Format in all cases: cell-based
Toll-like receptor 1/2 [1] = target: T1, Toll-like receptor 1/2 (Homo sapiens, UniProt O60603+Q15399); assay: Antagonist activity at FLAG-tagged human TLR2/TLR1 expressed in HEK293 cells co-expressing pGL3-Elam.luc assessed as Pam3CSK4-stimulated NF-kappaB activation at 50 uM preincubated for 1 hr followed by Pam3CSK4 stimulation for 5 hrs by luciferase reporter gene assay relative to control; parameters: scale not given: the % may be the effect or the level left
Toll-like receptor 1/2 [2] = target: T1, Toll-like receptor 1/2; assay: Antagonist activity at FLAG-tagged human TLR2/TLR1 expressed in HEK293 cells co-expressing pGL3-Elam.luc assessed as inhibition of Pam3CSK4-stimulated NF-kappaB activation preincubated for 1 hr followed by Pam3CSK4 stimulation for 5 hrs by luciferase reporter gene assay
TLR2/TLR6 (Homo sapiens) = TLR2/TLR6 (Homo sapiens) (UniProt O60603+Q9Y2C9); assay: Antagonist activity at FLAG-tagged human TLR2/TLR6 expressed in HEK293 cells co-expressing pGL3-Elam.luc assessed as inhibition of Pam2CSK4-stimulated NF-kappaB activation preincubated for 1 hr followed by Pam2CSK4 stimulation for 5 hrs by luciferase reporter gene assay
Toll-like receptor 1/2 [3] = target: T1, Toll-like receptor 1/2; assay: Antagonist activity at FLAG-tagged human TLR2/TLR1 expressed in HEK293 cells assessed as inhibition of Pam3CSK4-stimulated MAPK p38 phosphorylation at Thr180/Tyr182 residues at 50 uM preincubated for 1 hr followed by Pam3CSK4 stimulation for 35 mins by immunoblot analysis
Toll-like receptor 1/2 [4] = target: T1, Toll-like receptor 1/2; assay: Antagonist activity at FLAG-tagged human TLR2/TLR1 expressed in HEK293 cells assessed as inhibition of Pam3CSK4-stimulated JNK phosphorylation at Thr183/Tyr185 residues at 50 uM preincubated for 1 hr followed by Pam3CSK4 stimulation for 35 mins by immunoblot analysis
Toll-like receptor 1/2 [5] = target: T1, Toll-like receptor 1/2; assay: Antagonist activity at FLAG-tagged human TLR2/TLR1 expressed in HEK293 cells assessed as inhibition of Pam3CSK4-stimulated IkBalpha degradation at 50 uM preincubated for 1 hr followed by Pam3CSK4 stimulation for 35 mins by immunoblot analysis
Toll-like receptor 1/2 [6] = target: T1, Toll-like receptor 1/2; assay: Antagonist activity at TLR2/TLR1 in human THP1 cells assessed as inhibition of Pam3CSK4-stimulated non-canonical NF-kB pathway by measuring reduction in p52 level at 50 uM preincubated for 1 hr followed by Pam3CSK4 stimulation for 2 hrs by immunoblot analysis
Toll-like receptor 1/2 [7] = target: T1, Toll-like receptor 1/2; assay: Antagonist activity at TLR2/TLR1 in human PBMC assessed as inhibition of Pam3CSK4-stimulated TNFalpha production at 50 uM preincubated with cells followed by overnight Pam3CSK4 stimulation by ELISA relative to control
[8] = target: T2, Toll-like receptor 1/2 (Mus musculus) (UniProt Q9QUN7+Q9EPQ1); assay: Antagonist activity at TLR2/TLR1 in mouse BMDM assessed as inhibition of Pam3CSK4-stimulated TNFalpha production by measuring TNFalpha level at 25 uM preincubated for 1 hr followed by Pam3CSK4 stimulation for 11 hrs by ELISA relative to control; parameters: scale not given: the % may be the effect or the level left
Toll-like receptor 1/2 [9] = target: T1, Toll-like receptor 1/2; assay: Antagonist activity at TLR2/TLR1 in human PBMC assessed as inhibition of Pam3CSK4-stimulated IL-10 production at 100 uM preincubated with cells followed by overnight Pam3CSK4 stimulation by ELISA
[10] = target: T3, Toll-like receptor 4 (Mus musculus) (UniProt Q9QUK6); assay: Antagonist activity at TLR4 in mouse BMDM assessed as inhibition of LPS-stimulated TNFalpha production at 25 uM preincubated for 1 hr followed by LPS stimulation for 11 hrs by ELISA
T3 sequence (whole entry): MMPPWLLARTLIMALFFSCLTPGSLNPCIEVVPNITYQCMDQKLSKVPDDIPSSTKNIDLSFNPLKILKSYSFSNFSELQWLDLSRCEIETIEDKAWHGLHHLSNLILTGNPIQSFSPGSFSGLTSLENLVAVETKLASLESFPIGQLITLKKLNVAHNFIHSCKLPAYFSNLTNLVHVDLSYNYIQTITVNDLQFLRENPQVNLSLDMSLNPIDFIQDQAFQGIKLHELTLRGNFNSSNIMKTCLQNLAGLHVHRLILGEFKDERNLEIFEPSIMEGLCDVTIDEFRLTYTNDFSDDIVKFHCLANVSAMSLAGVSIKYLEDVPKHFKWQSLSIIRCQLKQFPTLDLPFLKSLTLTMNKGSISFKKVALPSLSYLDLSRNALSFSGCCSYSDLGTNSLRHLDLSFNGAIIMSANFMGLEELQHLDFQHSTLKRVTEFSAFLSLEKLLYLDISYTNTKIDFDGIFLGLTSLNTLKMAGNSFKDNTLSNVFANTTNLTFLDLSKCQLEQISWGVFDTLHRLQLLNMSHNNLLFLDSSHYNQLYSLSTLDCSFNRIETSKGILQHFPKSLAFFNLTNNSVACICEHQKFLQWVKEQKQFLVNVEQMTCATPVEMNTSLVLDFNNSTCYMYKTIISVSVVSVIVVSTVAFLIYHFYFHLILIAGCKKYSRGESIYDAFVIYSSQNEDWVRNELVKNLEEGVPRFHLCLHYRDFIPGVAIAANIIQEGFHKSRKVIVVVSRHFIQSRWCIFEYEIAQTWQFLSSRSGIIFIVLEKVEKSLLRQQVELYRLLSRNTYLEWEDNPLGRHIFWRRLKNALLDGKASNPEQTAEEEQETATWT

[11] = target: TLR7 and TLR8 (Mus musculus) (UniProt P58681+P58682); assay: Antagonist activity at TLR7/TLR8 in mouse BMDM assessed as inhibition of R848-stimulated TNFalpha production at 25 uM preincubated for 1 hr followed by R848 stimulation for 11 hrs by ELISA
[12] = target: T4, Toll-like receptor 3 (Mus musculus) (UniProt Q99MB1); assay: Antagonist activity at TLR3 in mouse BMDM assessed as inhibition of poly I:C-stimulated TNFalpha production at 25 uM preincubated for 1 hr followed by poly I:C stimulation for 11 hrs by ELISA
T4 sequence (whole entry): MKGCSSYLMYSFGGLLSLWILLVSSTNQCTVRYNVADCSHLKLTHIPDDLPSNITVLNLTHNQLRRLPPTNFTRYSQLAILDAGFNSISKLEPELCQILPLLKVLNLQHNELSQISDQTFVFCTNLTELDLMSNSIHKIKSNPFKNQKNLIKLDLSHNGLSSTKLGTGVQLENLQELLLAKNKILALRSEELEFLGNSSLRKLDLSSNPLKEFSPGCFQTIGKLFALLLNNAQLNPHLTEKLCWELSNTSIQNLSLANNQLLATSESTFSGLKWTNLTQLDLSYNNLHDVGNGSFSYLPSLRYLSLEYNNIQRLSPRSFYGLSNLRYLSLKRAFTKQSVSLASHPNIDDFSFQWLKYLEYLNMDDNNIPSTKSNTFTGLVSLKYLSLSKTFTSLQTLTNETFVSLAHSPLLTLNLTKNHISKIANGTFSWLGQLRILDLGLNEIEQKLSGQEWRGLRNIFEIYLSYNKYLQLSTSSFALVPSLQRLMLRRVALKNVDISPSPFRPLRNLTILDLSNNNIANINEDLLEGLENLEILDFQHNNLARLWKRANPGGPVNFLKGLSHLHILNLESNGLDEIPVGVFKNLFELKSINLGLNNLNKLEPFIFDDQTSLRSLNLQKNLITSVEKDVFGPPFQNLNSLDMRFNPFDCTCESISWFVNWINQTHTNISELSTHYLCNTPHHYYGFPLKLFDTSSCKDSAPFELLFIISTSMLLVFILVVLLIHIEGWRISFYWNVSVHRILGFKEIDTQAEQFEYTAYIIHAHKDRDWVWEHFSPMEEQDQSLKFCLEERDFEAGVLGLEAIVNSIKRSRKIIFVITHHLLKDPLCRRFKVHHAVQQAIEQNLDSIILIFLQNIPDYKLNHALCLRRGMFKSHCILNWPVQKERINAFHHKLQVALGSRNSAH

HEK293 = assay: Cytotoxicity against HEK293 cells at 100 uM after overnight incubation by CCK8 assay; conditions: human, hek293, 100 µM
BMDM = assay: Cytotoxicity against mouse BMDM at 100 uM after overnight incubation by CCK8 assay
THP-1 = assay: Cytotoxicity against human THP1 cells at 100 uM after overnight incubation by CCK8 assay; conditions: thp-1, 100 µM
[13] = target: T2, Toll-like receptor 1/2 (Mus musculus); assay: Antagonist activity at TLR2/TLR1 in mouse BMDM assessed as inhibition of Rhodamine-labeled Pam3CSK4-stimulated receptor internalization at 50 uM preincubated for 1 hr followed by Rhodamine-Pam3CSK4 stimulation for 20 mins by DAPI staining based phase contrast fluorescence microscopic method
[14] = target: T2, Toll-like receptor 1/2 (Mus musculus); assay: Antagonist activity at TLR2/TLR1 in mouse BMDM assessed as Rhodamine-labeled Pam3CSK4-stimulated receptor internalization at 50 uM preincubated for 1 hr followed by Rhodamine-Pam3CSK4 stimulation for 20 mins by FACS analysis relative to control; parameters: scale not given: the % may be the effect or the level left
Toll-like receptor 1/2 [15] = target: T1, Toll-like receptor 1/2; assay: Antagonist activity at FLAG-tagged human TLR2/YFP-tagged TLR1 expressed in HEK293 cells assessed as inhibition of Pam3CSK4-stimulated TLR1/TLR2 heterodimerization at 25 uM preincubated for 1 hr followed by Pam3CSK4 stimulation for 15 mins by immunoblot analysis
Toll-like receptor 1/2 [16] = target: T1, Toll-like receptor 1/2; assay: Antagonist activity at FLAG-tagged human TLR2/TLR1 expressed in HEK293 cells co-expressing pGL3-Elam.luc assessed as inhibition of Pam3CSK4-stimulated NF-kappaB activation at 50 uM preincubated for 1 hr followed by Pam3CSK4 stimulation for 5 hrs by luciferase reporter gene assay relative to control
Toll-like receptor 1/2 [17] = target: T1, Toll-like receptor 1/2; assay: Antagonist activity at TLR2/TLR1 in human PBMC assessed as inhibition of Pam3CSK4-stimulated IL-10 production by measuring IL-10 level at 100 uM preincubated with cells followed by overnight Pam3CSK4 stimulation by ELISA (reference value: 794 pg/ml)
[18] = target: T2, Toll-like receptor 1/2 (Mus musculus); assay: Antagonist activity at TLR2/TLR1 in mouse BMDM assessed as inhibition of Rhodamine-labeled Pam3CSK4-stimulated receptor internalization at 1 uM preincubated for 1 hr followed by Rhodamine-Pam3CSK4 stimulation for 20 mins by FACS analysis
Toll-like receptor 1/2 [19] = target: T1, Toll-like receptor 1/2; assay: Antagonist activity at FLAG-tagged human TLR2/TLR1 expressed in HEK293 cells assessed as inhibition of Pam3CSK4-stimulated MAPK p38 phosphorylation at Thr180/Tyr182 residues at 25 uM preincubated for 1 hr followed by Pam3CSK4 stimulation for 35 mins by immunoblot analysis
Toll-like receptor 1/2 [20] = target: T1, Toll-like receptor 1/2; assay: Antagonist activity at FLAG-tagged human TLR2/TLR1 expressed in HEK293 cells assessed as inhibition of Pam3CSK4-stimulated JNK phosphorylation at Thr183/Tyr185 residues at 25 uM preincubated for 1 hr followed by Pam3CSK4 stimulation for 35 mins by immunoblot analysis

T1 sequence (O60603 whole entry): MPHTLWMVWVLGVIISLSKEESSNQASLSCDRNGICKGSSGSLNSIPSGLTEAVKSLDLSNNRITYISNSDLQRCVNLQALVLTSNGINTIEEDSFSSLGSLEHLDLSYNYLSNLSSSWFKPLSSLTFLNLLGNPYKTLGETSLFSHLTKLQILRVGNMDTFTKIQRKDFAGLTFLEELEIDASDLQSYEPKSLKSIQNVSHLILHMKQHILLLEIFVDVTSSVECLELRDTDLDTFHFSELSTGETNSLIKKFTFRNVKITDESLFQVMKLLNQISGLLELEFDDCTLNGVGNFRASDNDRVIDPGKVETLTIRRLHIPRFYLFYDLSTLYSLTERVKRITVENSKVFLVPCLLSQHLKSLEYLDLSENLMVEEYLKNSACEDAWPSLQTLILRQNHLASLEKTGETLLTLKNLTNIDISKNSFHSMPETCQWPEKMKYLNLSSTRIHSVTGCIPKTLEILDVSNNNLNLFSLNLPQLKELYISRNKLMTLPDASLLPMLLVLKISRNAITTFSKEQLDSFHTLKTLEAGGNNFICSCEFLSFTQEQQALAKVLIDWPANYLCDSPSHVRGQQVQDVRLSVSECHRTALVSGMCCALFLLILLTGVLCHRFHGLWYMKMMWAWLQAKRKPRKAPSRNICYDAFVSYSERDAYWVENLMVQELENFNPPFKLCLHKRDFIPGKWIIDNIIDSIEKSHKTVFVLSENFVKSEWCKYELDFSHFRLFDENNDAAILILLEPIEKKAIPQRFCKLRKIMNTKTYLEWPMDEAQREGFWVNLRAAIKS
T1 sequence (Q15399 whole entry): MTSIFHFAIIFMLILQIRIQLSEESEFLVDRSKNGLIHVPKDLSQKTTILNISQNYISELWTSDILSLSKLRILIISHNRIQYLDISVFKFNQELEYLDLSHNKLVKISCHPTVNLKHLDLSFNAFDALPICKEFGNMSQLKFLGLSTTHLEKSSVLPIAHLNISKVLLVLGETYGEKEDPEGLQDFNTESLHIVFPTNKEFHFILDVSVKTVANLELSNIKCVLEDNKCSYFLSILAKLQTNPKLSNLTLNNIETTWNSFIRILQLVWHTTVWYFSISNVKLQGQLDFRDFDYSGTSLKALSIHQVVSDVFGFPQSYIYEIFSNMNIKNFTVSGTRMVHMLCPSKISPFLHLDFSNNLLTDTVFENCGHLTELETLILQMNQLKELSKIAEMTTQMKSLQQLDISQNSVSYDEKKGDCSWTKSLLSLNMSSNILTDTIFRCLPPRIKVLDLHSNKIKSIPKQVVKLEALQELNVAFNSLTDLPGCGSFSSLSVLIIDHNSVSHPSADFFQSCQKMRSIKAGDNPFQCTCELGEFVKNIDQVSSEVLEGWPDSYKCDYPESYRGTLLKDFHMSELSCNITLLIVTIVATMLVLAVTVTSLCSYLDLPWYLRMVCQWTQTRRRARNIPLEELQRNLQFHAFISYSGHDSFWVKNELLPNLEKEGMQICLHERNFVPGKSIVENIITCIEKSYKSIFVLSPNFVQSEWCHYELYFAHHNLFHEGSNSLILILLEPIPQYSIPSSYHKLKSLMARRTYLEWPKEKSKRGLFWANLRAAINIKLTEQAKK
TLR7 and TLR8 (Mus musculus), sequence (P58681 whole entry, looked up): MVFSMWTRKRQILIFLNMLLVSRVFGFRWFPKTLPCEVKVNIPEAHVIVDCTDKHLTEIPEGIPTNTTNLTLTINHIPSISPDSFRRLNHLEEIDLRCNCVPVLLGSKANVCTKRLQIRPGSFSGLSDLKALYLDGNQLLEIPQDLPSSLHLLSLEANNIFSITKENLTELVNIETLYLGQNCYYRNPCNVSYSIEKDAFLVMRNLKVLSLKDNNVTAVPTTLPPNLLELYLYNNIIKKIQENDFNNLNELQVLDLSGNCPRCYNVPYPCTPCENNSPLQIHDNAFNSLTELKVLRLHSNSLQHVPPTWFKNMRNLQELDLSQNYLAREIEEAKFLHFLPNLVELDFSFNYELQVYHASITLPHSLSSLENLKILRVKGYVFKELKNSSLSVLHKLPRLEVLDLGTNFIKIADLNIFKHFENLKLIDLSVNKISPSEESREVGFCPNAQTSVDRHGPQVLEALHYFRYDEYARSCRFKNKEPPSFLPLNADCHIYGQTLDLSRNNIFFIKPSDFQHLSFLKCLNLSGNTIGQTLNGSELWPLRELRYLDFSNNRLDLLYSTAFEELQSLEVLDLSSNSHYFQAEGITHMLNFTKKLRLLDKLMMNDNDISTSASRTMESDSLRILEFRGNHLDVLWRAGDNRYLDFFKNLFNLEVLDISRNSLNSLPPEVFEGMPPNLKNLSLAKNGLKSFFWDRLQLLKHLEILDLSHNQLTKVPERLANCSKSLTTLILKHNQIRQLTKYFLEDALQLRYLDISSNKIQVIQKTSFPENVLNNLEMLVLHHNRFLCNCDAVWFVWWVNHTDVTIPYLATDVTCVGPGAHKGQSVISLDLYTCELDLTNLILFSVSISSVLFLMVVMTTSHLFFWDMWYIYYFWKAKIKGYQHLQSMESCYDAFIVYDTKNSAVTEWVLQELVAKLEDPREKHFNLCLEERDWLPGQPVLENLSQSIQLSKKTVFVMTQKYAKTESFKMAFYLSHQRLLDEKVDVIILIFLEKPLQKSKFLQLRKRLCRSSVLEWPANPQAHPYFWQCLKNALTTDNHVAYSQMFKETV
TLR7 and TLR8 (Mus musculus), sequence (P58682 whole entry, looked up): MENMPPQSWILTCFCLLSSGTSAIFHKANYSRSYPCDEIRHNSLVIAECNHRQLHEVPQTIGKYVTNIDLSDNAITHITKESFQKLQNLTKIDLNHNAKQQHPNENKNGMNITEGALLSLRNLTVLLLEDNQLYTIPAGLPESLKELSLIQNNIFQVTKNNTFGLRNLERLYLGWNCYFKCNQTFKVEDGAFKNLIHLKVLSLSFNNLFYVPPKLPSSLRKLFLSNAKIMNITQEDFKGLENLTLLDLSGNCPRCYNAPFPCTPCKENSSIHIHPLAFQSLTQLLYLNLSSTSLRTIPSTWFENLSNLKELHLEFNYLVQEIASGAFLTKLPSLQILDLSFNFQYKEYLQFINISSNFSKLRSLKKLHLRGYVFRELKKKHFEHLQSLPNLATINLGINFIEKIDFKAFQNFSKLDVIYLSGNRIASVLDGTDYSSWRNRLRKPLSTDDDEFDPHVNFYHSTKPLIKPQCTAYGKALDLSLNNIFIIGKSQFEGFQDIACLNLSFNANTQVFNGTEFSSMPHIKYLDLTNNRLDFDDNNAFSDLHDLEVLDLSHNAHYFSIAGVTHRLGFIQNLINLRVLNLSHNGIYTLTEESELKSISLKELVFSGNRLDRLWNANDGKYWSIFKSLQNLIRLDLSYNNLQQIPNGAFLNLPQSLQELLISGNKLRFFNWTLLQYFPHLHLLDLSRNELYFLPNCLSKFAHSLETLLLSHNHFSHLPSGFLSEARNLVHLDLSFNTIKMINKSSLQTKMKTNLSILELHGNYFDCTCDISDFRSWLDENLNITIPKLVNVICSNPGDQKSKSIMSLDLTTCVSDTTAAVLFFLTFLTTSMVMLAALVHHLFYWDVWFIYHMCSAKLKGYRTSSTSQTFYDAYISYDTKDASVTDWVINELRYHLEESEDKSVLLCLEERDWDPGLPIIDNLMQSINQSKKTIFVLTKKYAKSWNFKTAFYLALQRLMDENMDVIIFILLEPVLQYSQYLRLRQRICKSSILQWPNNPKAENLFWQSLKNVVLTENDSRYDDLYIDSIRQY

Activity (Toll-like receptor 1/2 [1]): 51% | IC50 (Toll-like receptor 1/2 [2]): 49.2 µM | inhibition (Toll-like receptor 1/2 [2]): Dose-dependent effect | inhibition (TLR2/TLR6 (Homo sapiens)): inactive | inhibition (Toll-like receptor 1/2 [3]): Active | inhibition (Toll-like receptor 1/2 [4]): Active | inhibition (Toll-like receptor 1/2 [5]): inactive | inhibition (Toll-like receptor 1/2 [6]): Active | inhibition (Toll-like receptor 1/2 [7]): 50% | Activity [8]: 70% | inhibition (Toll-like receptor 1/2 [9]): Active | inhibition [10]: inactive | inhibition [11]: inactive | inhibition [12]: inactive | inhibition [13]: Active | Activity [14]: 37.4% | inhibition (Toll-like receptor 1/2 [15]): Active
Compound: H-HIPRFYLFYD-OH
Activity (HEK293): Non-Toxic | Activity (BMDM): Non-Toxic | Activity (THP-1): Non-Toxic

inhibition (Toll-like receptor 1/2 [16]): 66%
Compound: H-ENLMVEEY-OH

inhibition (Toll-like receptor 1/2 [16]): 56%
Compound: H-HIPRFYLFY-OH

inhibition (Toll-like receptor 1/2 [16]): Active
Compound: H-ENSKVFLVPC-OH

inhibition (Toll-like receptor 1/2 [16]): 86%
Compound: H-VETLTIRRL-OH

inhibition (Toll-like receptor 1/2 [16]): 56%
Compound: H-LHIPRFYLFYD-OH

inhibition (Toll-like receptor 1/2 [16]): 84.1%
Compound: H-TIRRLHIPR-OH

Activity (Toll-like receptor 1/2 [1]): 51% | IC50 (Toll-like receptor 1/2 [2]): 45.8 µM | inhibition (Toll-like receptor 1/2 [2]): Dose-dependent effect | inhibition (TLR2/TLR6 (Homo sapiens)): inactive | inhibition (Toll-like receptor 1/2 [3]): Active | inhibition (Toll-like receptor 1/2 [4]): Active | inhibition (Toll-like receptor 1/2 [5]): inactive | inhibition (Toll-like receptor 1/2 [6]): Active | inhibition (Toll-like receptor 1/2 [7]): 50% | Activity [8]: 80% | Activity (Toll-like receptor 1/2 [17]): 727 pg/mL | inhibition [10]: inactive | inhibition [11]: inactive | inhibition [12]: inactive | inhibition [13]: Active | Activity [14]: 70.2% | inhibition (Toll-like receptor 1/2 [15]): Active
Compound: H-ENLMVEEYLK-OH
Activity (HEK293): Non-Toxic | Activity (BMDM): Non-Toxic | Activity (THP-1): Non-Toxic

inhibition (Toll-like receptor 1/2 [16]): 56%
Compound: H-SENLMVEEYLK-OH

inhibition (Toll-like receptor 1/2 [16]): Active
Compound: H-VVSDVFGFP-OH

Compound: C=C1[C@@H](C)[C@H]2[C@H](Cc3ccccc3)NC(=O)[C@]23[C@H](OC(C)=O)/C=C/[C@@](C)(O)C(=O)[C@@H](C)C/C=C/[C@H]3[C@@H]1O
inhibition [18]: Active

inhibition (Toll-like receptor 1/2 [19]): Active | inhibition (Toll-like receptor 1/2 [20]): Active
Compound: Cc1cc(NC(=O)NC(=O)c2ccccc2N(C)C)ccc1Oc1ncc(Br)cn1

inhibition (Toll-like receptor 1/2 [16]): 81.9%
Compound: H-RLHIPRFYL-OH
